US20240009148A1, “Cystamine Formulations and Uses Thereof” (Birch Therapeutics, Inc., priority 2020, published 2024)
Counter-ions that a name gives are not always drawn. Like-named read-outs stand apart in the source and are kept apart here.

Columns and labels:
[1] = parameters: species or system male Sprague Dawley rats; details: rat, in vivo
Experimental: Cystamine dihydrochloride and cysteamine hydrochloride were administered to rats 1) orally on an empty stomach; 2) orally on full stomach; and 3) intra-cecum to evaluate the pharmacokinetics of cystamine and to compare it to cysteamine pharmacokinetics. Oral administration (PO) simulated immediate-release (IR) formulations. Intra-cecum (IC) administration simulated large intestine release (LIR) formulations, which provides a time to Cmax of more than 4 hours after administration.
Animal studies were performed by Absorption Systems. Test articles: Cysteamine hydrochloride (CH), 98%; Cystamine dihydrochloride (HCCH), 95-96% (both obtained from Sigma Aldrich). CH has one cysteamine base, while HCCH, upon disulfide bond reduction, yields two cysteamine molecules. CH and HCCH were administered at a dose selected to deliver 30 mg/kg of cysteamine base (44.2 mg/kg and 43.8 mg/kg respectively), so that each rat received same number of cysteamine molecules. Test articles (dry powder) were dissolved in 3 mL for PO and in 0.5 mL for IC of room temperature water no more than 15 minutes before dosing.
Five (5) male Sprague Dawley rats ˜300-350 gram (Envigo) were used per group, with 6 groups total.
All animals were healthy at the start of the trial and assigned randomly to the study groups by weight. Fed state animals had food and water supplied ad libitum. Fasted state animals had food removed at least 12 hours prior to dosing and food was returned 4 hours post dosing; water was supplied ad libitum. Oral gavage needle and syringe were used for oral administration. For IC dose administration, the animals were anesthetized with isoflurane regulated at ˜1-3% in oxygen. The abdominal cavity was surgically opened and the proximal large intestine was exposed. A test article was administered directly into the proximal large intestine with a 1 cc disposable syringe equipped with a 25 g hypodermic needle. The surgical site was then closed with staples or suture.
Blood was sampled from jugular vein at the following time points: pre-dose, 15, 30, 60, 120, 180, and 240 minutes post dose. Blood samples were collected into tubes containing TBD anticoagulant, then centrifuged at a temperature of 4° C., at 3,000×g, for 5 minutes. Once prepared, plasma samples were snap frozen. Plasma samples were stored at −80° C. until analysis.
Sample analysis was performed by Integrated Analytical Solutions. To measure plasma cysteamine, to 10 uL of a plasma sample or standard was added 10 uL of internal standard with reduction solution: 5 ug/mL d4-cysteamine (CDN Isotopes), 10 mM TCEP in water, prepared fresh, and mixed thoroughly. The mixture was incubated at 37° C. for 60 minutes, then 40 uL of 5% trichloroacetic acid was added and the solution was mixed thoroughly. Samples were then centrifuged at 6100 g for 30 minutes. Next, 20 uL of each supernatant were transferred to an autosampler plate and sealed with a cap mat. The concentration of cysteamine was measured by use of LC/MS/MS tandem mass spectroscopy. Column Atlantis T3 2.1×30mm, 3um was used at a room temperature; mobile phase A: 0.1% heptafluorobutyric acid in water; mobile phase B: 0.2% formic acid in acetonitrile; injection volume: 3 uL. (API 4000 LC/MS/MS; Applied Biosystems). The following MS parameters were used—HPLC system: Shimadzu VP Series 10 System; MS/MS: Applied Biosystems/MDS SCIEX API 4000; software: Analyst v1.6.3; isolation method: Electrospray, Positive Ion; source temperature: TurbolonSpray (ESI) at 400°. Cysteamine concentrations were calculated with a calibration curve that was prepared by spiking plasma with buffered cysteamine solutions, and quality control samples were analyzed with each batch.

[2] = test system: cystinosis fibroblast cell culture; details: compared with cysteamine (Thoene 1976); cited from earlier work

NCCS [CH, Cysteamine hydrochloride, reference compound]
Cmax of plasma cysteamine, IC compared to PO fasted [1]: higher
Tmax (time to Cmax) of plasma cysteamine [1]: 15 min
Tmax (time to Cmax) of plasma cysteamine ([1]; po): 15 min

NCCSSCCN [Cystamine]
Decrease of lysosomal cystine [2]: comparably to cysteamine

Cl.Cl.NCCSSCCN [HCCH, Cystamine dihydrochloride]
AUC for dosing into the large intestine lower than AUC for oral dosing ([1]; male, Sprague Dawley, po): 25%
Cmax for IC dosing lower than Cmax after oral administration ([1]; male, Sprague Dawley, po): more than 50%
Absorption pattern after dosing to the large intestine [1]: not rapid, but rather sustained
Cmax of plasma cysteamine compared to CH ([1]; po): higher Cmax
